Patent publication US20230103462A1, “TOPICAL PHARMACEUTICAL COMPOSITION IN GEL FORM COMPRISING AT LEAST AMITRIPTYLINE FOR USE IN THE TREATMENT OF NEUROPATHIC PHANTOM LIMB PAIN” (priority 2021, published 2023)

Assay: Comparative ex vivo study of the percutaneous absorption of amitriptyline (Frantz cell)
Assay type: in vitro ADME
Conditions: human skin ex vivo, compositions with 10% amitriptyline hydrochloride
Description: Comparative ex vivo study of the percutaneous absorption of amitriptyline in a formulation A in aqueous gel form (invention) and in a formulation B in cream form (comparative). Each of compositions A and B was applied on separate human skin samples. For each composition, the experiment was repeated 3 times with 3 skin samples from 3 different donors, i.e., 9 samples. The skin samples are mounted in a Frantz cell and are heated to a surface temperature of 32° C.±1° C. Composition A or B is spread evenly using a spatula on each skin sample at a rate of 10 mg per cell, corresponding to 5 mg/cm^2 of skin. The skin samples are rinsed 16 hours after application. Each skin sample was placed with a tweezers on a paper towel (dermis facing downward). The stratum corneum is removed using adhesive strips. After removing the stratum corneum, the sample is perforated. The epidermis is then separated from the dermis. Each of them is placed in separate bottles. The different samples were then extracted.

- systemic passage of amitriptyline: less than 0.1 % of the administered dose
Structure (SMILES): CN(C)CCC=C1c2ccccc2CCc2ccccc21 [amitriptyline, Amitriptyline]
